According to US9700047B2, “Macrocyclic picolinamides as fungicides” (Dow AgroSciences LLC, priority 2014, dated 2017):
Where two headings read alike, the source gives them in different places.

Tested on: Puccinia triticina; Synonym: Puccinia recondita f sp. tritici
Assay: Wheat brown rust (PUCCRT) disease control on wheat seedlings
Type: in vivo
Conditions: for pest or weed control at 121.5 g/ha: Low Volume activity at 121.5 g/H; for pest or weed control at 100 ppm: High Volume activity at 100 ppm
Procedure: All fungicides were evaluated using the aforementioned method for their activity vs. all target diseases, unless stated otherwise. Wheat leaf blotch and brown rust activity were also evaluated using track spray applications, in which case the fungicides were formulated as EC formulations, containing 0.1% Trycol 5941 in the spray solutions. Wheat plants (variety Yuma) were grown from seed in a greenhouse in 50% mineral soil/50% soil-less Metro mix until the first leaf was fully emerged, with 7-10 seedlings per pot. These plants were inoculated with an aqueous spore suspension of Puccinia triticina either prior to or after fungicide treatments. […] The plants were then transferred to a greenhouse set at 24° C. for disease to develop. Fungicide formulation, application and disease assessment followed the procedures as described in the Example A.

[1] = 24 h, 1 Day Protectant, read-out: PUCCRT 1DP % Control rating
[2] = 72 h, 3 Day Curative, read-out: PUCCRT 3DC % Control rating

| Structure (SMILES) | pest or weed control at 121.5 g/ha [1] [%] | pest or weed control at 121.5 g/ha [2] [%] | pest or weed control at 100 ppm [1] [%] | pest or weed control at 100 ppm [2] [%] |
| --- | --- | --- | --- | --- |
| COc1ccnc(C(=O)N[C@H]2CCC[C@H](CCC(C)C)[C@@H](C3CCCC3)[C@H](C)OC2=O)c1OCOC(C)=O [Compound 42] | > 70 | < 70 | – | – |
| COc1ccnc(C(=O)N[C@H]2CCC[C@H](CCC(C)C)[C@@H](C3CCCC3)[C@H](C)OC2=O)c1OC(C)=O [Compound 43] | > 70 | < 70 | – | – |
| COc1ccnc(C(=O)N[C@H]2CCC[C@H](CCC(C)C)[C@@H](C3CCCC3)[C@H](C)OC2=O)c1OCOC(=O)C(C)C [Compound 44] | > 70 | < 70 | – | – |
| COc1ccnc(C(=O)N[C@H]2CCC[C@H](Cc3ccccc3)[C@@H](CCC(C)C)[C@H](C)OC2=O)c1OC(C)=O [Compound 45] | > 70 | < 70 | – | – |
| CCC[C@H]1CCC[C@H](NC(=O)c2nccc(OC)c2OC(C)=O)C(=O)O[C@@H](C)[C@@H]1Cc1ccc(F)cc1 [Compound 46] | > 70 | > 70 | – | – |
| COc1ccnc(C(=O)N[C@H]2CCC[C@H](Cc3ccccc3)[C@@H](CCC(C)C)[C@H](C)OC2=O)c1OCOC(C)=O [Compound 47] | > 70 | < 70 | – | – |
| CCC[C@H]1CCC[C@H](NC(=O)c2nccc(OC)c2OCOC(C)=O)C(=O)O[C@@H](C)[C@@H]1Cc1ccc(F)cc1 [Compound 48] | > 70 | > 70 | – | – |
| COc1ccnc(C(=O)N[C@H]2CCC[C@H](Cc3ccccc3)[C@@H](CCC(C)C)[C@H](C)OC2=O)c1OC(=O)C(C)C [Compound 49] | < 70 | < 70 | – | – |
| COc1ccnc(C(=O)N[C@H]2CCC[C@H](Cc3ccccc3)[C@@H](CCC(C)C)[C@H](C)OC2=O)c1OCOC(=O)C(C)C [Compound 50] | > 70 | < 70 | – | – |
| CCOCC(=O)OCOc1c(OC)ccnc1C(=O)N[C@H]1CCC[C@H](Cc2ccccc2)[C@@H](CCC(C)C)[C@H](C)OC1=O [Compound 51] | > 70 | < 70 | – | – |
| COc1ccnc(C(=O)N[C@H]2CCC[C@H](Cc3ccccc3)[C@@H](c3ccccc3)[C@H](C)OC2=O)c1OCOC(C)=O [Compound 52] | > 70 | < 70 | – | – |
| COc1ccnc(C(=O)N[C@H]2CCC[C@H](Cc3ccccc3)[C@@H](c3ccccc3)[C@H](C)OC2=O)c1OC(C)=O [Compound 53] | > 70 | < 70 | – | – |
| CCC[C@H]1CCC[C@H](NC(=O)c2nccc(OC)c2OCOC(C)=O)C(=O)O[C@@H](C)[C@@H]1c1ccccc1 [Compound 54] | > 70 | > 70 | – | – |
| CCC[C@H]1CCC[C@H](NC(=O)c2nccc(OC)c2OC(C)=O)C(=O)O[C@@H](C)[C@@H]1c1ccccc1 [Compound 55] | > 70 | > 70 | – | – |
| COc1ccnc(C(=O)N[C@H]2CCC[C@H](CCCc3ccccc3)[C@@H](CC(C)C)[C@H](C)OC2=O)c1OC(C)=O [Compound 56] | > 70 | < 70 | – | – |
| COc1ccnc(C(=O)N[C@H]2CCC[C@H](CCCc3ccccc3)[C@@H](Cc3ccc(OC(F)(F)F)cc3)[C@H](C)OC2=O)c1OC(C)=O [Compound 57] | < 70 | < 70 | – | – |
| COc1ccnc(C(=O)N[C@H]2CCC[C@H](CCCc3ccccc3)[C@@H](Cc3ccc(OC(F)(F)F)cc3)[C@H](C)OC2=O)c1OC(=O)C(C)C [Compound 58, 4-methoxy-2-(((3S,7S,8R,9S)-9-methyl-2-oxo-7-(3-phenylpropyl)-8-(4-(trifluoromethoxy)benzyl)oxonan-3-yl)carbamoyl)pyridin-3-yl isobutyrate] | < 70 | < 70 | – | – |
| COc1ccnc(C(=O)N[C@H]2CCC[C@H](CCCc3ccccc3)[C@@H](Cc3ccc(OC(F)(F)F)cc3)[C@H](C)OC2=O)c1OCOC(C)=O [Compound 59] | > 70 | < 70 | – | – |
| COc1ccnc(C(=O)N[C@H]2CCC[C@H](CC3CC3)[C@@H](Cc3ccccc3)[C@H](C)OC2=O)c1OC(C)=O [Compound 60] | > 70 | > 70 | – | – |
| COc1ccnc(C(=O)N[C@H]2CCC[C@H](CC3CC3)[C@@H](Cc3ccccc3)[C@H](C)OC2=O)c1OCOC(C)=O [Compound 61] | > 70 | > 70 | – | – |
| COc1ccnc(C(=O)N[C@H]2CCC[C@H](Cc3ccccc3)[C@@H](Cc3ccc(F)cc3)[C@H](C)OC2=O)c1OC(C)=O [Compound 62] | > 70 | < 70 | – | – |

| Structure (SMILES) | pest or weed control at 121.5 g/ha [1] [%] | pest or weed control at 121.5 g/ha [2] [%] | pest or weed control at 100 ppm [1] [%] | pest or weed control at 100 ppm [2] [%] |
| --- | --- | --- | --- | --- |
| COc1ccnc(C(=O)N[C@H]2CCC[C@H](Cc3ccccc3)[C@@H](Cc3ccc(F)cc3)[C@H](C)OC2=O)c1OCOC(C)=O [Compound 63] | > 70 | < 70 | – | – |
| COc1ccnc(C(=O)N[C@H]2CCC[C@H](Cc3ccccc3)[C@@H](Cc3ccc(F)cc3)[C@H](C)OC2=O)c1OCOC(=O)C(C)C [Compound 64] | > 70 | < 70 | – | – |
| COc1ccnc(C(=O)N[C@H]2CCC[C@H](Cc3ccc(C(F)(F)F)cc3)[C@@H](Cc3ccc(OC(F)(F)F)cc3)[C@H](C)OC2=O)c1OCOC(C)=O [Compound 65] | < 70 | < 70 | – | – |
| CCOCC(=O)OCOc1c(OC)ccnc1C(=O)N[C@H]1CCC[C@H](Cc2ccc(C(F)(F)F)cc2)[C@@H](Cc2ccc(OC(F)(F)F)cc2)[C@H](C)OC1=O [Compound 66] | < 70 | < 70 | – | – |
| COc1ccnc(C(=O)N[C@H]2CCC[C@H](Cc3ccc(C(F)(F)F)cc3)[C@@H](Cc3ccc(OC(F)(F)F)cc3)[C@H](C)OC2=O)c1OC(C)=O [Compound 67] | < 70 | < 70 | – | – |
| COc1ccnc(C(=O)N[C@H]2CCC[C@H](Cc3ccccc3)[C@@H](Cc3ccc(OC(F)(F)F)cc3)[C@H](C)OC2=O)c1OCOC(C)=O [Compound 68] | < 70 | < 70 | – | – |
| CCOCC(=O)OCOc1c(OC)ccnc1C(=O)N[C@H]1CCC[C@H](Cc2ccccc2)[C@@H](Cc2ccc(OC(F)(F)F)cc2)[C@H](C)OC1=O [Compound 69] | < 70 | < 70 | – | – |
| COc1ccnc(C(=O)N[C@H]2CCC[C@H](CCCc3ccccc3)[C@@H](Cc3ccccc3)[C@H](C)OC2=O)c1OCOC(C)=O [Compound 70] | > 70 | < 70 | – | – |
| CCCC[C@@H]1[C@@H](Cc2ccccc2)CCC[C@H](NC(=O)c2nccc(OC)c2O)C(=O)O[C@H]1C [Compound 71, N-((3S,7R,8R,9S)-7-benzyl-8-butyl-9-methyl-2-oxooxonan-3-yl)-3-hydroxy-4-methoxypicolinamide] | – | – | > 70 | > 70 |
| CCCC[C@@H]1[C@@H](Cc2ccc(C(F)(F)F)cc2)CCC[C@H](NC(=O)c2nccc(OC)c2O)C(=O)O[C@H]1C [Compound 72] | – | – | > 70 | < 70 |
| COc1ccnc(C(=O)N[C@H]2CCC[C@H](CCC(C)C)[C@@H](Cc3ccccc3)[C@H](C)OC2=O)c1O [Compound 73] | – | – | > 70 | < 70 |
| COc1ccnc(C(=O)N[C@H]2CCC[C@H](Cc3ccccc3)[C@@H](Cc3ccccc3)[C@H](C)OC2=O)c1O [Compound 74] | – | – | > 70 | > 70 |
| COc1ccnc(C(=O)N[C@H]2CCC[C@H](Cc3ccccc3)[C@@H](C3CCCC3)[C@H](C)OC2=O)c1O [Compound 75] | – | – | > 70 | < 70 |
| COc1ccnc(C(=O)N[C@H]2CCC[C@H](Cc3ccc(Cl)cc3)[C@@H](CC(C)C)[C@H](C)OC2=O)c1O [Compound 76] | – | – | > 70 | < 70 |
| COc1ccnc(C(=O)N[C@H]2CCC[C@H](Cc3ccccc3)[C@@H](CCc3ccccc3)[C@H](C)OC2=O)c1O [Compound 78] | – | – | > 70 | < 70 |
| COc1ccnc(C(=O)N[C@H]2CCC[C@H](Cc3ccc(Cl)cc3)[C@@H](Cc3ccccc3)[C@H](C)OC2=O)c1O [Compound 79] | – | – | > 70 | < 70 |
| COc1ccnc(C(=O)N[C@H]2CCC[C@H](Cc3ccc(C(F)(F)F)cc3)[C@@H](CC(C)C)[C@H](C)OC2=O)c1O [Compound 80] | – | – | > 70 | < 70 |
| COc1ccnc(C(=O)N[C@H]2CCC[C@H](Cc3ccc(C(F)(F)F)cc3)[C@@H](Cc3ccccc3)[C@H](C)OC2=O)c1O [Compound 81] | – | – | > 70 | < 70 |
| CCC[C@H]1CCC[C@H](NC(=O)c2nccc(OC)c2O)C(=O)O[C@@H](C)[C@@H]1Cc1ccccc1 [Compound 82] | – | – | > 70 | > 70 |
| COc1ccnc(C(=O)N[C@H]2CCC[C@H](CCC(C)C)[C@@H](CCc3ccccc3)[C@H](C)OC2=O)c1O [Compound 83] | – | – | > 70 | < 70 |
| COc1ccnc(C(=O)N[C@H]2CCC[C@H](Cc3ccc(Cl)cc3)[C@@H](C3CCCC3)[C@H](C)OC2=O)c1O [Compound 84] | – | – | > 70 | < 70 |
